Measurements taken from US8440827B2, “Photolabile caged transition metal complexes and methods of using the same” (Duke University, priority 2008, dated 2013).
Like-named read-outs stand apart in the source and are kept apart here. Values belong to the molecule of their own block, whether it stands above or below them.

What was measured:
[1] = constant of the model, taken from literature; cited from earlier work
[2] = Solubility of H2cage in solvents; type: physicochemical
From the text: A ligand H2cage is obtained in a one-pot, two-step synthesis starting from 3-amino-3-(2-nitrophenyl)propionic acid. […] In the presence of Cu2+, however, protons are released from H2cage at pH 3.3 and 4.8, consistent with deprotonation of both amides.

[3] = Potentiometric titration of the apo-ligand H2cage; type: physicochemical; settings: pH range 2 to 12
[4] = Potentiometric and pH-dependent spectrophotometric titrations of CuL; type: physicochemical; settings: for Log β (overall stability constant): pH-dependent spectrophotometric titration, 25° C., 0.1 M NaClO4, Specfit, refined
Description: Cu(II) perchlorate solutions (0.1 M) were prepared from solid Cu(ClO4)2.6H2O and standardized with 0.05 M EDTA to a murexide endpoint in ammonia buffer. NaOH, HClO4, and NaClO4 solutions (0.1 M) were prepared with boiled nanopure deionized water and were degassed upon cooling to remove dissolved carbonate. NaOH solutions were standardized by titration with both 0.2 M HCl and potassium hydrogen phthalate to a phenolphthalein end point and were stored under Ar; HClO4 stock solutions were prepared from concentrated perchloric acid and standardized by titration with standard NaOH to a phenolphthalein end point. All solutions were degassed with Ar for 45 minutes prior to each experimental run.
Titrations were carried out at 25° C. with 0.1 M NaClO4 supporting electrolyte in a 3-mL cuvette equipped with a pH probe, titrator tip, and stir bar, and blanketed in Ar to preserve an inert environment. The glass-bulb probe (Orion combination pH electrode model 8103BN filled with 3 M NaCl) was calibrated with pH 4 and 7 standard reference buffers (RICCA Chemical Company). CuL solutions were prepared by dissolving [Cu(OH2)(cage)] recrystallized from methanol in 0.1 M NaClO4 to obtain CuL concentrations in the range of 0.5 mM. Initial volumes were between 2 and 2.2 mL. A Schott TITRONIC® 110 plus autotitrator kept under constant Ar sparge was used to deliver 2 to 4 μL aliquots of acid or base through the titrator tip into the reaction cuvette. The solutions were stirred constantly and allowed to equilibrate at least 30 s after each addition before data were collected. All titrations were carried out from low to high and from high to low pH with similar results.
Titration data for the CuL complex show two ionizable protons below pH 5.

[5] = Deoxyribose assay for hydroxyl radical production; settings: for effect on OH• production by copper: relative to Cu2+ alone
From the text: Hydroxyl radicals, which are generated in this assay by Fenton-like conditions of copper, ascorbic acid, and H2O2, degrade deoxyribose to give thiobarbituric acid (TBA)-reactive products with absorbance at 532 nm. Ligands added to the reaction mixture attenuate the amount of TBA-reactive species by altering the coordination environment around copper. […] The 2-deoxyribose assay was used to measure hydroxyl radical formation (Halliwell, B.; Gutteridge, […]. Anal. Biochem. 1987, 165, 215-219). A mixture of copper, ascorbic acid, and hydrogen peroxide generates hydroxyl radicals by Fenton-like chemistry. Hydroxyl radicals attack 2-deoxyribose to form malondialdehyde (MDA), which upon heating with TBA under acidic conditions produces a pink chromophore (λmax=532 nm). Chelators that prevent copper from reacting with ascorbic acid and hydrogen peroxide result in less chromophore formation. All assays were performed using 20 mM NaH2PO4 buffered to pH 7.4. The following reagents were added sequentially to obtain a 1 mL buffered solution with these final concentrations: chelator (10-20 μM), CuSO4 (10 μM), 2-deoxyribose (15 mM), H2O2 (100 μM), and ascorbic acid (2 mM). For photolyzed samples, 500 μM solutions of [Cu(OH2)(cage)] in 20 mM pH 7.4 NaH2PO4 buffer were photolyzed in screwtop quartz cuvettes for 4 min in the photoreactor, then immediately diluted into the deoxyribose reaction mixtures to obtain final concentrations of 10 μM in Cu. Stock solutions of CuSO4, ascorbic acid, and H2O2 were prepared fresh daily, other solutions were prepared weekly. […] The temperature was increased to 100° C. for 20 min, then cooled to room temperature and the absorbance at 532 nm was recorded. Values are reported as A/A0 where A0 is the absorbance without chelator present and A is the absorbance with chelator added. The value for CuSO4 alone is A/A0=1. Error bars represent standard deviations from measurements done in at least triplicate.

[6] = cited from earlier work
[7] = Competition study of nitrilotriacetic acid (NTA) vs. cage for Cu2+; type: binding; settings: competition with NTA, 50 mM HEPES pH 7.4, 25° C., refined
Description: Solutions of CuL (where L=cage^2−) were prepared by dissolving [Cu(OH2)cage] that was recrystallized from methanol into 50 mM HEPES (N-(2-hydroxyethyl)-piperazine-N′-2-ethanesulfonic acid) buffer, pH 7.4, with initial concentrations ranging from 03-1.5 mM. The reaction vessel was a 3-mL cuvette and initial solution volumes were 1 mL. All titrations were carried out at 25° C. Aliquots (1-2 μL) of the competitive chelator NTA (100 mM) were pipetted into CuL solutions and monitored spectrophotometrically. After each addition, solutions were manually mixed and equilibrated for 5 min before data were collected. Reported errors in log β were calculated from the standard deviation of three runs.

[8] = Photolysis with 350 nm UV light, followed by UV-vis and LC-MS; type: physicochemical; settings: pH 7.4 phosphate buffer
From the text: The shift in the d-d band centered at 580 nm indicates a reorganization of the coordination sphere upon photolysis. The band for the intact Cu complex 2 disappears and is replaced by bands corresponding to the expected photoproducts 3 and 4, as confirmed by their mass spectra and by comparison to a picolinamide standard for 3. […] Reduction to Cu1+ is also possible as a result of photolysis, although it would likely reoxidize to Cu2+ under these experimental conditions.
All chemicals were purchased commercially and used without further purification. […] Elemental analysis was performed by Columbia Analytical Services, Inc. IR spectra were measured on a Nicolet 380 FT-IR. High-resolution, fast-atom bombardment (HR-FABMS) mass spectra were recorded on JEOL JMS-SX-102 instrument. […] A Varian Polaris C18 (150×1.0 mm) column was used and peaks were detected by UV absorption at 254 nm. […] UV-vis spectra were recorded on a Cary 50 UV-vis spectrophotometer. […]

SMILES: O=C([O-])CN(CC(=O)[O-])CC(=O)O.[Cu+2] [Cu(NTA)]
- Log β [1]: 12.7

- solubility in methanol and ethanol [2]: very soluble
- solubility in water [2]: moderately soluble
- dissociable (ionizable) protons [3]: no dissociable protons
- dissociable (ionizable) protons ([3]; listed as apo-ligand): no ionizable protons
- pH at which protons are released from H2cage, higher value ([4]; in the presence of Cu2+): 4.8
- pH at which protons are released from H2cage, lower value ([4]; in the presence of Cu2+): 3.3
- protection of deoxyribose degradation ([5]; compared to background reaction of Cu2+ alone, pH 7.4): 50%
SMILES: O=C(CC(NC(=O)c1ccccn1)c1ccccc1[N+](=O)[O-])NCc1ccccn1 (stereo not shown) [H2cage, Pyridine-2-carboxylic acid {1-(2-nitro-phenyl)-2-[(pyridine-2-ylmethyl)-carbamoyl]-ethyl}-amide]

SMILES: O=C(O)CN(CC(=O)O)CC(=O)O [NTA, nitrilotriacetic acid, reference compound]
- effect on OH• production by copper ([5]; pH 7.4): promotes OH• production
- Kd ([6]; pH 7.4, read-out: KD for Cu2+): 0.023 nM

SMILES: O=C(O)CN(CC(=O)O)CC(=O)O [NTAH3]
- Log β [1]: 13.76

SMILES: O=C(O)CN(CC(=O)O)CC(=O)O [NTAH4]
- Log β [1]: 14.76

- Kd ([4]; pH 7.4, converted from log β, read-out: conditional dissociation constant, KD): 0.016 nM
- Log β (overall stability constant) [4]: 10.8
- Log β (overall stability constant) ([4]; listed as CuL): 10.80 ± 0.01
- Log β [7]: 10.79 ± 0.06
- changes in UV-vis spectrum on exposure to UV light [8]: apparent within seconds
- time of photolysis until cleavage of the ligand is complete ([8]; LC-MS): ≤ 4 min
SMILES: O=C1CC(c2ccccc2[N+](=O)[O-])[N](C(=O)c2ccccn2)[Cu]([OH])[N]1Cc1ccccn1 (stereo not shown) [[Cu(OH2)(cage)]]
- OH• production after uncaging by UV photolysis ([5]; photolyzed for 4 min, increase in A532): increases OH• production

SMILES: NC(=O)c1ccccn1 [picolinamide]
- effect on OH• production by copper ([5]; pH 7.4): improve the catalytic properties of the metal
- log value for the 1:1 species ([6]; Cu2+ : ligand 1:1): 2.87
- log value for the 1:2 species ([6]; Cu2+ : ligand 1:2): 5.40
